According to US20220331348A1, “METHOD OF PREPARING PENTACYCLIC TRITERPENOID SAPONINS AND DRUG COMPOSITION” (CHINA PHARMACEUTICAL UNIVERSITY, priority 2019, published 2022):
Marks after values point to notes of the source that are not given here.

Assays:
[1] = tested on: high fat diet induced NASH model rats; assay: High fat diet (HFD) induced NASH rat model; type: in vivo; details: for Liver TC / Liver TG / Serum LDL-c / Serum TG: HFD induced NASH model rats; for Liver TC / Liver TG / Serum LDL-c / Serum TG / ALT / AST: n = 8; for ALT / AST: serum of HFD induced NASH model rats
Description: Animal: 32 SD male rats of SPF level with 6 weeks old and 220 g were purchased from Beijing Vital River Laboratory Animal Technology Co., Ltd. All the animals maintained 12 h alternative circadian rhythm with free access to food.
Reagent: the ginsenoside Ro (I) was purchased from Shanghai Boka Chemistry Technology Co., Ltd; obeticholic acid (OCA) was purchased from Jiangsu Vcare PharmaTech Co., Ltd; high fat diets were purchased from Research Diets (D12492, 60 kcal %); and standard feeds were purchased from Research Diets (D12450B, 10 kcal %).
The rats were randomly divided into 4 groups based on the weight: a control group (CHOW), a high fat diet model group (HFD), a positive drug obeticholic acid (OCA, 5 mg/Kg) group (HFD+OCA) and a ginsenoside Ro (Ro for short, 5 mg/kg) group (HFD+Ro). The control group was fed with the standard feeds and drank water normally; and the rest groups were fed with the high fat diets, drank 10% aqueous sucrose solution for replacing the water and were modeled for 20 weeks.
After 20 weeks, the control group and the high fat diet model group were given with a CMC-Na solution with the volume fraction of 0.5% intragastrically every day, the HFD+OCA group was given with the obeticholic acid (5 mg/Kg) intragastrically every day, and the HFD+Ro was given with the ginsenoside Ro (5 mg/Kg) intragastrically every day. Administration was conducted for 8 weeks, during which, the control group was given with the standard feeds and drank the water normally, and the rest three groups were given with the high fat diets and drank 10% aqueous sucrose solution. The rats in each group were weighed every day, weights, hairs, feces and activity conditions were carefully observed and recorded.
The rats were deprived of food but not water for 12 h in advance; and the next morning, blood was taken from eye sockets, the rats were sacrificed, and livers were harvested. Right liver lobule tissues were fixed with 4% paraformaldehyde for HE stained slicing. A part of liver tissues were divided into 3 parts, which were snap-frozen in liquid nitrogen for subsequent detection of other indexes.
Whole blood was left to still standing for 2 h at room temperature, centrifugation was conducted for 15 min at 3000 rpm, and a serum was collected. 100 Mg of liver tissues were taken and homogenized with 0.9 mL of precooled normal saline, a homogenate was centrifuged for 15 min at 4° C. and 3000 rpm, and a supernatant was taken. Both of the serum and the supernatant were sent to Pathologic Department of Hospital of Integrated Traditional Chinese and Western Medicine in Jiangsu Province for determination of levels of triglyceride (TG), total cholesterol (TC), low density lipoprotein cholesterin (LDL-c) and high density lipoprotein cholesterol (HDL-c) in the serum and levels of the TG and the TC in the supernatant of the homogenate of the liver tissues with the full-automatic biochemical analyzer.
Pretreated tissues were sent to Google Biotechnology Co., Ltd for preparing HE stained slices and oil red stained slices.
Liver tissues preserved at −80° C. were put in the liquid nitrogen, about 10 mg of the liver tissues were quickly dissected out, 500 μL of precooled tissue lysate was added, and the tissues were homogenized with a homogenizer and then left to lyse on ice for 30 min; and centrifugation was conducted for 15min at 4° C. and 12000 rpm, […] of a supernatant was sucked to a clean EP tube, […] of the supernatant was taken for BCA protein quantification, […] of 5*loading buffer was added in the rest protein supernatant for denaturing by boiling, SDS-PAGE electrophoresis was conducted subsequently, the proteins were transferred onto a PVDF membrane, then incubation and elution of a relevant antibody were conducted, and finally, a chemiluminescence apparatus was employed for imaging analysis.

[2] = tested on: ulcerative colitis model mice induced by DSS; assay: Dextran sulphate sodium salt (DSS) induced ulcerative colitis model mice; type: in vivo, mouse; details: DSS-induced mice; dose not given; vs model group
Description: C57BL/6 male mice with 6-8 weeks old were selected; a control group was fed with purified water; and a model group, a treatment group and a positive control group were fed with purified water containing 2% dextran sulphate sodium salt (DSS) (36000-50000 M.Wt) for 7 days and then with the purified water for 3 days, and drug intervention was conducted at the same time. The mice in the control group and the model group were orally administered with carboxymethyl cellulose sodium as a placebo, the mice in the treatment group were orally administered with the ziyuglycoside II (purchased from Shanghai Boka Chemistry Technology Co., Ltd) (with a dosage of 5 mg/kg), and the mice in the positive control group were orally administered with 5-aminosalicylic acid as a clinical drug (5-ASA, purchased from Shanghai Sangon Biological Engineering Co., Ltd) (with a dosage of 100 mg/kg). In the administration process, weight changes, feces characters and hematochezia conditions of the mice were observed and recorded every day and were scored, and disease activity indexes were calculated (Disease activity index, DAI).
A scoring rule and a calculation method were as follows: DAT=(weight score+diarrhea score+occult blood score)/3, wherein weight score: 0 (weight gained or unchanged), 1 (weight lost by 1-5%), 2 (weight lost by 6-10%), 3 (weight lost by 11-15%), 4 (weight lost by 15% or above); diarrhea score: 0 (normal feces), 2 (soft feces), 4 (feces sticking anuses or diarrhea); and occult blood score: 0 (negative occult blood), 2 (positive occult blood), and 4 (visible bleeding). Comparing differences in DAI of various groups, it can be known that the ziyuglycoside II has significant prevention and treatment effects on ulcerative colitis of the mice modeled by the dextran sulphate sodium salt (DSS).
The above mice were sacrificed by cervical dislocation at day 11, colon tissues were harvested, lengths of the colon tissues were measured for statistical summary, and differences in colon length of various groups were compared, from which, the ziyuglycoside II has significant prevention and treatment effect on the ulcerative colitis model mice.
Middle segments, with lengths of about 1 cm, of the colon tissues of the above mice were selected, soaked in a formalin solution for fixing overnight, embedded with paraffin and sliced, and the slices were subjected to HE staining. […] Particularly, compared with the positive drug group, the ziyuglycoside II has the advantage of maintaining a thickness of a muscular layer.
10 mg of proximal rectum segments of the colon tissues of the above mice were selected, PBS was added for homogenization, and centrifugation was conducted for taking a supernate. The supernate was subjected to ELISA detection, and protein quantification was conducted for inflammatory factors TNF-α and IL-lb.
10 mg of colon tissues of the above mice were selected for detection of ROS therein.
When the ulcerative colitis occurs, the inflammatory factors may destruct tight junction between intestinal tracts, and destruction of the tight junction enables functions of mucosal barriers to be lost and accelerates development of the diseases. 5 mg of colon tissues of the above mice were selected for qPCR analysis. […] This hints that the ziyuglycoside II further has the efficacy of increasing the expression level of the tight junction and then protecting a structure of each colon. […] Therefore, the ziyuglycoside II is expected to be useful for preparing the drug for preventing or treating the inflammatory bowel diseases such as the ulcerative colitis.

[3] = HFD NASH rats, 5 mg/Kg intragastrically every day, 8 weeks (FIG. 4)
[4] = HFD NASH rats, 5 mg/Kg, 8 weeks, q-PCR (FIG. 6)
[5] = HFD NASH rats, 5 mg/Kg, 8 weeks, q-PCR (FIG. 7)
[6] = HFD NASH rats, summary in words

## CC1(C)CC[C@]2(C(=O)O[C@@H]3O[C@H](CO)[C@@H](O)[C@H](O)[C@H]3O)CC[C@]3(C)C(=CC[C@@H]4[C@@]5(C)CC[C@H](O[C@@H]6O[C@H](C(=O)O)[C@@H](O)[C@H](O)[C@H]6O[C@@H]6O[C@H](CO)[C@@H](O)[C@H](O)[C@H]6O)C(C)(C)[C@@H]5CC[C@]43C)[C@@H]2C1 [(I), ginsenoside Ro]
[1]; [3]
  level of the HDL-c in the serum: effectively lower
  level of the LDL-c in the serum: effectively lower
  level of the TC in the serum: effectively lower
[1]; HFD NASH rats, 5 mg/Kg intragastrically every day, 8 weeks (FIG. 5)
  contents of the TC in the livers: significantly lowered
[1]; HFD NASH rats, 5 mg/Kg intragastrically every day, 8 weeks, vs HFD model group (FIG. 4)
  level of the TG in the serum: significantly lower
[1]; HFD NASH rats, 5 mg/Kg intragastrically every day, 8 weeks, vs HFD model group (FIG. 5)
  level of the TG in the liver: significantly lower
[1]; [4]
  mRNA expression level of IL-6 in liver: significantly inhibit increase
  mRNA expression level of IL-10 in liver: significantly inhibit increase
  mRNA expression level of TNF-α in liver: significantly inhibit increase
[1]; [5]
  mRNA expression level of TGF-β in liver: significantly inhibit increase
  mRNA expression level of α-SMA in liver: significantly inhibit increase
[1]; [6]
  inflammatory responses of the livers: inhibits
  lipid accumulation, caused by the high fat diets, of the rat livers: significantly lower
  liver fibrosis: inhibits
[2]
  DAI scores of the treatment group: obviously lower than those of the model group

## CC1(C)CC[C@]2(C(=O)O[C@@H]3O[C@H](CO[C@@H]4O[C@H](CO)[C@@H](O)[C@H](O)[C@H]4O)[C@@H](O)[C@H](O)[C@H]3O)CC[C@]3(C)C(=CC[C@@H]4[C@@]5(C)CC[C@H](O[C@@H]6OC[C@H](O)[C@H](O)[C@H]6O)[C@@](C)(CO)[C@@H]5CC[C@]43C)[C@@H]2C1 [(II), asperosaponin VI]
[2]
  DAI scores of the treatment group: obviously lower than those of the model group

## C[C@H]1O[C@@H](O[C@H]2CC[C@@]3(C)[C@@H](CC[C@]4(C)[C@@H]3C=C[C@]35OC[C@@]6(CCC(C)(C)C[C@H]63)[C@@H](O)C[C@]54C)[C@]2(C)CO)[C@H](O)[C@@H](O[C@@H]2O[C@H](CO)[C@@H](O)[C@H](O)[C@H]2O)[C@H]1O [(VII), saikosaponin A]
[1]; [6]
  inflammatory responses of the livers: inhibit
  lipid accumulation, caused by the high fat diets, of the rat livers: effectively lower
[1]; 5 mg/Kg
  Liver TC: 0.518 ± 0.133** mmoL/gprot
  Liver TG: 1.268 ± 0.294** mmoL/gprot
  Serum LDL-c: 47.06 ± 7.83* mg/dL
  Serum TG: 20.43 ± 4.04* mg/dL
  ALT: 71.36 ± 9.26* U/L
  AST: 115.24 ± 19.23*** U/L
[2]
  DAI scores of the treatment group: obviously lower than those of the model group

## C[C@H]1O[C@@H](O[C@H]2CC[C@@]3(C)[C@@H](CC[C@]4(C)[C@@H]3C=C[C@]35OC[C@@]6(CCC(C)(C)C[C@H]63)[C@H](O)C[C@]54C)[C@]2(C)CO)[C@H](O)[C@@H](O[C@@H]2O[C@H](CO)[C@@H](O)[C@H](O)[C@H]2O)[C@H]1O [(VIII), saikosaponin D]
[1]; [6]
  inflammatory responses of the livers: inhibit
  lipid accumulation, caused by the high fat diets, of the rat livers: effectively lower
[1]; 5 mg/Kg
  Liver TC: 0.509 ± 0.248** mmoL/gprot
  Liver TG: 1.173 ± 0.606*** mmoL/gprot
  Serum LDL-c: 46.75 ± 7.35** mg/dL
  Serum TG: 19.66 ± 5.12* mg/dL
  ALT: 67.74 ± 8.29** U/L
  AST: 121.43 ± 9.28** U/L
[2]
  DAI scores of the treatment group: obviously lower than those of the model group

## C[C@@H]1O[C@@H](O[C@H]2[C@H](O[C@H]3CC[C@@]4(C)[C@@H](CC[C@]5(C)[C@@H]4CC=C4[C@@H]6CC(C)(C)CC[C@]6(C(=O)O)CC[C@]45C)[C@]3(C)CO)OC[C@H](O)[C@@H]2O)[C@H](O)[C@H](O)[C@H]1O [(X), α-hederin]
[2]
  DAI scores of the treatment group: obviously lower than those of the model group

## C[C@@H]1O[C@@H](O[C@H]2[C@H](O[C@H]3CC[C@@]4(C)[C@@H](CC[C@]5(C)[C@@H]4CC=C4[C@@H]6CC(C)(C)CC[C@]6(C(=O)O[C@@H]6O[C@H](CO[C@@H]7O[C@H](CO)[C@@H](O[C@@H]8O[C@@H](C)[C@H](O)[C@@H](O)[C@H]8O)[C@H](O)[C@H]7O)[C@@H](O)[C@H](O)[C@H]6O)CC[C@]45C)[C@]3(C)CO)OC[C@H](O)[C@@H]2O)[C@H](O)[C@H](O)[C@H]1O [(XI), hederacoside C]
[2]
  DAI scores of the treatment group: obviously lower than those of the model group

## C[C@@H]1CC[C@]2(C(=O)O[C@@H]3O[C@H](CO)[C@@H](O)[C@H](O)[C@H]3O)CC[C@]3(C)C(=CC[C@@H]4[C@@]5(C)CC[C@H](O[C@@H]6OC[C@H](O)[C@H](O)[C@H]6O)C(C)(C)[C@@H]5CC[C@]43C)[C@@H]2[C@]1(C)O [(XII), ziyuglycoside I]
[1]; [6]
  inflammatory responses of the livers: inhibit
  lipid accumulation, caused by the high fat diets, of the rat livers: effectively lower
[1]; 5 mg/Kg
  Liver TC: 0.547 ± 0.272* mmoL/gprot
  Liver TG: 1.302 ± 0.443** mmoL/gprot
  Serum LDL-c: 48.52 ± 6.98* mg/dL
  Serum TG: 18.32 ± 2.51** mg/dL
  ALT: 74.03 ± 12.38* U/L
  AST: 120.91 ± 19.32** U/L
[2]
  DAI scores of the treatment group: obviously lower than those of the model group
